According to patent US20030092735A1, “Use of substance P antagonists for the treatment of chronic fatigue syndrome and/or fibromyalgia and use of NK-1 receptor antagonists for the treatment of chronic fatigue syndrome” (priority 1998, published 2003):

Experiments:
[1] = tested on: Patients with chronic fatigue syndrome; test: CFS Clinical Study (randomized, double-blind, placebo-controlled); type: in vivo, human; conditions: doses of 10 to 20 mg/day, myalgias, cognitive impairment, baseline vs end of treatment
Text: Patients with chronic fatigue syndrome according to the CDC (Centre for Disease Control) definition (G. P. Holmes et al.: A working case definition. Ann. intern. Med; 108 (1988), 387-389) are included in the trial. Other recognised definitions may be used to identify patients with chronic fatigue syndrome as appropriate. Both male and female patients are eligible, provided they are over 18 years of age and under 65 years of age. The main exclusion criteria comprise pregnant and lactating women; in addition patients suffering from other diseases that cause significant fatigue as well as patients who suffer from active infections are excluded. […]
The study is in the form of a prospective, randomized, double-blind, placebo-controlled, parallel-group study using different doses of a Preferred A Compound of the Invention, (e.g. (2R,4S)-N-[1-(3,5-bistrifluoromethylbenzoyl)-2-(4-chlorobenzyl)-piperidin-4-yl-quinolin-4-carboxamide). […] Adverse events are assessed during the active treatment period. […]
Other parameters which are evaluated include cognitive impairment (to be measured by visual analog scale [VAS]) and the assessment of myalgias. […] The assessment of each body region is done by the patients themselves; the total score is calculated as the sum of the regional scores. […]

[2] = tested on: patients who meet the ACR criteria for primary fibromyalgia; test: Fibromyalgia Clinical Study (randomized, double-blind, placebo-controlled); type: in vivo, human; conditions: doses of 10 to 20 mg/day; response = 35% or higher reduction in individual pain score, baseline versus end of treatment
Text: The study is in the form of a prospective, randomized, double-blind, placebo-controlled, parallel-group study using different doses of Compound of the Invention. Male and female patients (over 18 years) who meet the ACR (American College of Rheumatology) cirteria for primary fibromyalgia are included in this trial. The main exclusion criteria include pregnant and lactating woman, patients suffering from other inflammatory rheumatological diseases (such as rheumatoid arthritis or collagenoses), severe neuropathies, clinically manifest endocrinopathies, bone diseases, severe cardial, renal or hepatic impairment and acute or chronic infections.
Patients are randomly assigned to one of five study arms, placebo, 1 mg, 10 mg, 20 mg and 40 mg of test compound. The duration of treatment is two weeks. Before, on day 7 and at the end of the treatment phase, a physical examination, pain assessment and blood testing are performed. […] Adverse events are assessed during the active treatment period.
To evaluate pain, the pain score, a visual analogue scale and clinical examination of tenderpoints is used. […] The assessment of each body region is done by the patients themselves; the total score is calculated as the sum of the regional scores. […]

[3] = tested on: patients who meet the ACR criteria for primary fibromyalgia; conditions: Amitryptilin regarded as an effective treatment in fibromyalgia; comparator value; cited from earlier work

Question: What does the source list for `O=C(N[C@H]1CCN(C(=O)c2cc(C(F)(F)F)cc(C(F)(F)F)c2)[C@H](Cc2ccc(Cl)cc2)C1)c1ccnc2ccccc12` [(2R,4S)-N-[1-(3,5-bistrifluoromethylbenzoyl)-2-(4-chlorobenzyl)-piperidin-4-yl-quinolin-4-carboxamide]?
Answer: reduction in the score for one or more symptoms of CFS [1]: ≥ 20%; response rates for fibromyalgia treatment [2]: at least equivalent to or comparable with those achieved with Amitryptilin

Question: Which “response rates in fibromyalgia (of patients)” value [3] does the source give for `CN(C)CCC=C1c2ccccc2CCc2ccccc21` [Amitryptilin] here?
Answer: The value was 20 to 30%.
